From ChEMBL document CHEMBL3124816, “Preparation and optimization of new 4-(2-(indolin-1-yl)-2-oxoethyl)-2-morpholinothiazole-5-carboxylic acid and amide derivatives as potent and selective PI3Kβ inhibitors” (Bioorg Med Chem Lett, 2014)

How the values were obtained:
[1] = molecular target: T1, Phosphatidylinositol 4,5-bisphosphate 3-kinase catalytic subunit beta isoform (Homo sapiens, UniProt P42338); assay: Inhibition of PI3Kbeta in human PTEN-deficient PC3 cells assessed as Akt phosphorylation at S473; assay type: cell-based, PC-3
[2] = Plasma concentration in SCID mouse harboring human PTEN-deficient PC3 cells at 150 mg/kg, po after 7 hrs; assay type: ADME, organism-based, PC-3; design: dose 150 mg/kg, route oral
[3] = Apparent permeability of the compound in human Caco2 cells; assay type: ADME, cell-based; details: Caco-2
[4] = Thermodynamic solubility of the compound in 50 mM Phosphate buffer at pH 7.4 after 16 hrs by HPLC analysis; assay type: physicochemical; details: buffer, pH 7.4, 16 h; 16 h
[5] = Drug metabolism in rat liver microsomes assessed as compound lability; assay type: ADME; details: read-out: Drug metabolism
[6] = molecular target: Phosphatidylinositol 4,5-bisphosphate 3-kinase catalytic subunit alpha isoform (Homo sapiens, UniProt P42336); assay: Inhibition of human PI3Kalpha after 15 mins
[7] = AUC in Sprague-Dawley rat at 10 mg/kg, po; assay type: ADME, organism-based; design: dose 10 mg/kg, route oral; details: plasma
[8] = molecular target: Phosphatidylinositol 4,5-bisphosphate 3-kinase catalytic subunit gamma isoform (Homo sapiens, UniProt P48736); assay: Inhibition of human PI3Kgamma after 15 mins
[9] = Plasma concentration in SCID mouse harboring human PTEN-deficient PC3 cells at 150 mg/kg, po after 16 hrs; assay type: ADME, organism-based, PC-3; design: dose 150 mg/kg, route oral
[10] = molecular target: T1, Phosphatidylinositol 4,5-bisphosphate 3-kinase catalytic subunit beta isoform; assay: Inhibition of human PI3Kbeta after 15 mins
[11] = molecular target: T2, Phosphatidylinositol 4,5-bisphosphate 3-kinase catalytic subunit delta isoform (Homo sapiens, UniProt O00329); assay: Inhibition of human PI3Kdelta after 15 mins
T2 sequence (O00329 whole entry): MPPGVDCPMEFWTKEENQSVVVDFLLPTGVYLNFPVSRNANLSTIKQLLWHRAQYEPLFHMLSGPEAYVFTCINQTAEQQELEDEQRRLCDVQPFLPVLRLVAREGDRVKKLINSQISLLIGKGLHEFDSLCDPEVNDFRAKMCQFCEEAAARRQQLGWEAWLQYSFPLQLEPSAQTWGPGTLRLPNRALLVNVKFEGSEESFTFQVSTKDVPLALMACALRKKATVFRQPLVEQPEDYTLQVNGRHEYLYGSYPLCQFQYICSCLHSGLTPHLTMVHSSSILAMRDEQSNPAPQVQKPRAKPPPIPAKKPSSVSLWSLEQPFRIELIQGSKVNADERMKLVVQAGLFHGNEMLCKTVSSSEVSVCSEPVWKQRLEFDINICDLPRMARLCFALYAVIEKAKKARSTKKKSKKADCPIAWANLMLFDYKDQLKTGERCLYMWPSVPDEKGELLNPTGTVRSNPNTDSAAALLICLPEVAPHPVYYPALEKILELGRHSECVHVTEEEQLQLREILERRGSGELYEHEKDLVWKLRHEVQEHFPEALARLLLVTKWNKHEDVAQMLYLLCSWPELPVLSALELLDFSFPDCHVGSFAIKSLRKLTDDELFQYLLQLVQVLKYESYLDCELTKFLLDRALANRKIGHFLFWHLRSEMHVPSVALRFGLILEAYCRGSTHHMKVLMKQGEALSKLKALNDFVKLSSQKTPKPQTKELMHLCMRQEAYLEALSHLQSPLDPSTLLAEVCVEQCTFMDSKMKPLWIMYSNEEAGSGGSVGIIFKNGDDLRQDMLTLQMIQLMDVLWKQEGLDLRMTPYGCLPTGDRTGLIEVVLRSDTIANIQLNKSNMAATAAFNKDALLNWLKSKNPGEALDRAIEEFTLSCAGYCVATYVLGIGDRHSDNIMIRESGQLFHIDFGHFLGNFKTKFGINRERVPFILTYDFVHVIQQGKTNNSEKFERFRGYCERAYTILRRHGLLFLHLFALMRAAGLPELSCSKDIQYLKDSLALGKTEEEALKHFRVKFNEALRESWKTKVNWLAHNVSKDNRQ

[12] = Oral bioavailability in Sprague-Dawley rat at 10 mg/kg; assay type: ADME, organism-based; details: in vivo
[13] = Volume of distribution at steady state in Sprague-Dawley rat at 3 mg/kg, iv; assay type: ADME, organism-based; design: dose 3 mg/kg, route intravenous; details: in vivo, read-out: Vdss
[14] = Terminal elimination half life in Sprague-Dawley rat at 3 mg/kg, iv; assay type: ADME, organism-based; design: dose 3 mg/kg, route intravenous; details: in vivo, read-out: beta t1/2 (converted)
[15] = Plasma protein binding in mouse; assay type: ADME, organism-based; details: read-out: PPB (converted)
[16] = Plasma concentration in SCID mouse harboring human PTEN-deficient PC3 cells at 150 mg/kg, po after 1 hr; assay type: ADME, organism-based, PC-3; design: dose 150 mg/kg, route oral
[17] = Clearance in Sprague-Dawley rat at 3 mg/kg, iv; assay type: ADME, organism-based; design: dose 3 mg/kg, route intravenous; details: in vivo
[18] = Cmax in Sprague-Dawley rat at 10 mg/kg, po; assay type: ADME, organism-based; design: dose 10 mg/kg, route oral; details: in vivo
[19] = Drug metabolism in mouse liver microsomes assessed as compound lability; assay type: ADME, Microsome; details: microsomes
[20] = Tmax in Sprague-Dawley rat at 10 mg/kg, po; assay type: ADME, organism-based; design: dose 10 mg/kg, route oral; details: in vivo
[21] = Terminal elimination half life in Sprague-Dawley rat at 10 mg/kg, po; assay type: ADME, organism-based; design: dose 10 mg/kg, route oral; details: in vivo, read-out: beta t1/2 (converted)

T1 sequence (P42338 whole entry, canonical isoform): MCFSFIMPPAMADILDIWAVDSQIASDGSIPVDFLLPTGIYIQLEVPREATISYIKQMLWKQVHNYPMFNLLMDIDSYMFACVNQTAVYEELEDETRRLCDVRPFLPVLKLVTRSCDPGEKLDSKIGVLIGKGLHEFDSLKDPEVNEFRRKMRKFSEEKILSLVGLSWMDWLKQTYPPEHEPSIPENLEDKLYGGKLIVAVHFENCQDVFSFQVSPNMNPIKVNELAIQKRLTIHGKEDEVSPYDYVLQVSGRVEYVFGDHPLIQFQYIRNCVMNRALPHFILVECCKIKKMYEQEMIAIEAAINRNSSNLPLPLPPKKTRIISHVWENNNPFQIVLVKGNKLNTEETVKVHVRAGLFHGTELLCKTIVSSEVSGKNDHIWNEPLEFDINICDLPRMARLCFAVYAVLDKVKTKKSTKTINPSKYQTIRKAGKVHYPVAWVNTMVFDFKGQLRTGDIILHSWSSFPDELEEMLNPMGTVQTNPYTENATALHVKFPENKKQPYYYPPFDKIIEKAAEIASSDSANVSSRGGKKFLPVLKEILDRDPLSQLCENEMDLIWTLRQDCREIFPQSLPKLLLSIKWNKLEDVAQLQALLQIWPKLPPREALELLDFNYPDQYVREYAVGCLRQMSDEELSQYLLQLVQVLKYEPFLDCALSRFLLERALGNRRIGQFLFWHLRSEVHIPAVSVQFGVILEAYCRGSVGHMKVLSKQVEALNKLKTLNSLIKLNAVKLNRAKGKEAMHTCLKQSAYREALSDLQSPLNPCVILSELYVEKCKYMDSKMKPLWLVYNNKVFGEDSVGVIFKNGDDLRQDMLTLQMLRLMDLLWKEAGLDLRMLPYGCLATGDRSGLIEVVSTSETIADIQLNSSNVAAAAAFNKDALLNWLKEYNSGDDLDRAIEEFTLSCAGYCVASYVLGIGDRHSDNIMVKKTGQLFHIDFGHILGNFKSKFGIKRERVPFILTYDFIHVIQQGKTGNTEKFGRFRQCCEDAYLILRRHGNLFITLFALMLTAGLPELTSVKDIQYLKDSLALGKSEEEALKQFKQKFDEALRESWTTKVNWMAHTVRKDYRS
Chain of Phosphatidylinositol 4,5-bisphosphate 3-kinase catalytic subunit alpha isoform (P42336 whole entry, canonical isoform): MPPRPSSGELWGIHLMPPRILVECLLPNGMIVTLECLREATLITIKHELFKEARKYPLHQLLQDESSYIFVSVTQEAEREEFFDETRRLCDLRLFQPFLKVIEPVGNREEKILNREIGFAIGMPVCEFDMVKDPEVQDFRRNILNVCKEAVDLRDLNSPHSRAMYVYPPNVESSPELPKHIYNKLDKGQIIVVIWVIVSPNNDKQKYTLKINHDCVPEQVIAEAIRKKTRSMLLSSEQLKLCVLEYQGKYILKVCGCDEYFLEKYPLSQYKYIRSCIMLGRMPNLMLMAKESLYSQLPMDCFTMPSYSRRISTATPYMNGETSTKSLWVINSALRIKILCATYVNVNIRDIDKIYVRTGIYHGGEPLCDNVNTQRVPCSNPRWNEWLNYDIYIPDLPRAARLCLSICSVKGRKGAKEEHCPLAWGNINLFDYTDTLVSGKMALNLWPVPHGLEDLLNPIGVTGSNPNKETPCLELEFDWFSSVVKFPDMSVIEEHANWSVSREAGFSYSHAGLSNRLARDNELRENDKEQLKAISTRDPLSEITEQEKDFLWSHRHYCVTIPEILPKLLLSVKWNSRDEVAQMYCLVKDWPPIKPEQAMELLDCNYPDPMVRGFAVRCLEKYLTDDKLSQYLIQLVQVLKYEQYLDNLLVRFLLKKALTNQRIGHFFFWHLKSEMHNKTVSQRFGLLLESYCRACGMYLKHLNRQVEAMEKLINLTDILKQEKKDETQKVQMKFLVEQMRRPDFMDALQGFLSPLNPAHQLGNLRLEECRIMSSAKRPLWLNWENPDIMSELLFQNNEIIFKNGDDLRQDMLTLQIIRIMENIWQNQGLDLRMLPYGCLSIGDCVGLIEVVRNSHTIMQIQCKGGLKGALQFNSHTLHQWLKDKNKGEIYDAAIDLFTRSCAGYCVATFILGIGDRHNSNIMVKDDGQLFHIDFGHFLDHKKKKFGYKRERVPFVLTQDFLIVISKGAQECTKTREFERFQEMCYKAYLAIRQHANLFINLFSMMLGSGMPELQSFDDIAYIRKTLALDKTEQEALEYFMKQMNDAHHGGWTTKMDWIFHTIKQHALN
Chain of Phosphatidylinositol 4,5-bisphosphate 3-kinase catalytic subunit gamma isoform (P48736 whole entry, canonical isoform): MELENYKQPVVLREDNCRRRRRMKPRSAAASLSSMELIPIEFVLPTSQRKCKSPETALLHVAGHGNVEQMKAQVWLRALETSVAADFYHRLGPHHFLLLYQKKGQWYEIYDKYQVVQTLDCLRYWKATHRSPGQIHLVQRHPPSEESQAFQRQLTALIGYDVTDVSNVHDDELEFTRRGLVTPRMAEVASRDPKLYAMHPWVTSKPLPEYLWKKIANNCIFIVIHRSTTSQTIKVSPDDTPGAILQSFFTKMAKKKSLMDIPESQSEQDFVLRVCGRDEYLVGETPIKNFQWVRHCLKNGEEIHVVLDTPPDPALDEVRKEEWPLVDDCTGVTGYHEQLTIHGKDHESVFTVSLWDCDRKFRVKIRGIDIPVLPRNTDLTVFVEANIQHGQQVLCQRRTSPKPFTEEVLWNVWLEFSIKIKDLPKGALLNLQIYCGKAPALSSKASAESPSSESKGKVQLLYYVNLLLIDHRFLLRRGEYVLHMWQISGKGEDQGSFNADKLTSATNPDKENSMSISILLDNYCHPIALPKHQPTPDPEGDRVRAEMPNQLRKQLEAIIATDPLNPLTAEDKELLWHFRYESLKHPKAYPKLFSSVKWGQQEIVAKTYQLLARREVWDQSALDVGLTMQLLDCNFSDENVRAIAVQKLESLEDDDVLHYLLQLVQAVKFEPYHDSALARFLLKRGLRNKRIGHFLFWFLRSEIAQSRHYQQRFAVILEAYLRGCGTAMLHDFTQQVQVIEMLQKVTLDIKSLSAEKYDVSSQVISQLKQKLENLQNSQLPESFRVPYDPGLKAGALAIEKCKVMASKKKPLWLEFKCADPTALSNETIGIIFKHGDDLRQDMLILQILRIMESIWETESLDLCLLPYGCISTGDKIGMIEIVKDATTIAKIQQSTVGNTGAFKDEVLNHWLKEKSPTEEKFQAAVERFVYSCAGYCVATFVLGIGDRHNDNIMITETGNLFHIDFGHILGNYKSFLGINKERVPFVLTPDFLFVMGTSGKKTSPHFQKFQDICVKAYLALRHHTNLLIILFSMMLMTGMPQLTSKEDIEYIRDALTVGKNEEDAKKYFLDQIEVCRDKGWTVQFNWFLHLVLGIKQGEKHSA

IC50 [1]: 140 nM
concentration at 7 h [2]: 79 µM
Papp [3]: 0.5 ×10⁻⁶ cm/s
Therm_solubility [4]: 3.795 mM
metabolised [5]: 7%
IC50 [6]: 395 nM
AUC [7]: 41000 ng·h/mL
IC50 [8]: 4350 nM
concentration at 16 h [9]: 3 µM
IC50 [10]: 10 nM
IC50 [11]: 63 nM
bioavailability [12]: 99%
Vd [13]: 0.65 L/kg
half-life [14]: 3.8 h
fraction unbound [15]: 0.015
concentration at 1 h [16]: 181 µM
clearance [17]: 4.17 mL/min/kg
Cmax [18]: 15100 ng/mL
Drug metabolism [19]: 17%
Tmax [20]: 0.25 h
half-life [21]: 6.3 h
SMILES: CC1Cc2c(Br)cccc2N1C(=O)Cc1nc(N2CCOCC2)sc1C(=O)O (single isomer, unassigned; enantiomer 1)
